From US4910318A, “Tetrahydrothiopyrano(3,2-b)-indole derivatives” (Shionogi & Co., Ltd., priority 1980, dated 1990)
Structures can show the parent of a compound that is named as a salt.

Experiments:
Acetic acid writhing = assay: Analgesic activity (Acetic acid writhing method); assay type: in vivo, DS male mice; settings: Mus musculus; mice, oral, 30 min before acetic acid i.p.; writhing counted for 10 minutes; read-out: Analgesic activity ED50 (Test (2))
Protocol: (2) Analgesic activity (Acetic acid writhing method)
DS male mice (20-23 g, body weight) are treated with an intraperitoneal injection of 0.1 ml/10 g of 0.6% acetic acid 30 minutes after oral administration of a test compound. The number of writhing times for 10 minutes is counted and ED50 is calculated.

Acute toxicity = settings: mouse, in vivo; mice, oral, mortality at the 72nd hour; read-out: Acute toxicity LD50 (Test (3))
Protocol: DS mice (20-23 g, male) are orally administered a suspension of test compound with gum arabic. The mortality at the 72nd hour is determined and the LD50 is calculated.

Carrageenin edema = assay: Anti-inflammatory activity (Carrageenin edema method); assay type: in vivo, JCl-Wistar female rats; settings: Rattus norvegicus; rats, oral, 30 min before carrageenin; swelling measured 3 hours later; read-out: Anti-inflammatory activity ED30 (Test (1))
Protocol: (1) Anti-inflammatory activity (Carrageenin edema method)
A 0.9% saline solution (0.05 ml) containing 1.0% carrageenin is used as phlogistic agent. After 30 minutes JCl-Wistar female rats (180-200 g, body weight) are orally administered a test compound, the phlogistic agent is injected subcutaneously into the plantar of the feet of the rats. The volume of swelling is measured 3 hours later and the anti-edema activity is determined by calculating a ratio (%) of the edematous volume of medicated foot to that of non-medicated foot.

[1] = tested on: bizarre behaviours of mice; assay: Hallucinogenic activity (bizarre behaviours); assay type: in vivo; settings: FIGS. 1 and 2
Protocol: (8) Hallucinogenic activity
Each of the five mice in each group was confined n a box for 15 minutes to let it adapt to its surroundings. The mouse was kept on a black disc of 74 cm in diameter for 2 minutes from 5 and 15 minutes after administration of a test compound. The number of bizarre behaviours (walking backwards, pivoting and the like) was counted.

[2] = tested on: spontaneous locomotion in mice; assay: Spontaneous locomotor increasing activity; assay type: in vivo; settings: for ED50: Mus musculus, 50% increase vs control, 95% confidence limits on next line, read-out: ED50 (increasing effect on spontaneous locomotion); for ED50 / % of increase of spontaneous locomotion: oral
Protocol: (6) Spontaneous locomotor increasing activity
For each group 3 mice were used. Spontaneous locomotor activity was recorded for 15 minutes by a Varimex activity meter from 15 minutes after oral administration of a test compound.

[3] = tested on: minimal electroshock seizures with reserpine; assay: Antidepressant activity: Anti-electroshock test with reserpine; assay type: in vivo, mice; settings: for ED50: Mus musculus, po, mice, p.o., 0.5 hour before reserpine 2.5 mg/kg s.c., 12 mA, 0.2 sec, 4 hours after reserpine
Protocol: (§1) (4) Antidepressant activity
(4)-b Anti-electroshock test with reserpine
Seizures were induced by shocking mice (10 per dose) via a pair of corneal electrodes with current intensity of 12 mA and a duration of 0.2 sec 4 hours after administration of reserpine.

oxotremorine hypothermia = assay: Anti-cholinergic activity (Anti-oxotremorine hypothermia test); assay type: in vivo, mice; settings: for ED50: Mus musculus, mice, oral, 30 minutes before oxotremorine 0.5 mg/kg s.c.
Protocol: (5) Anti-cholinergic activity (Anti-oxotremorine hypothermia test)
Before each experiment the rectal temperature of the mice was recorded with a probe thermometer at a constant depth. The mice were divided into groups of 8 in such a way that the mean rectal temperature was the same in each group. Test compounds were administered orally 30 minutes before s.c. administration of oxotremorine (0.5 mg/kg).

tetrabenazine ptosis = assay: Antidepressant activity: Anti-tetrabenazine ptosis test; assay type: in vivo, mice; settings: for ED50: Mus musculus, mice, oral, 1 hour before TBZ 50 mg/kg s.c., ptosis 1 hour after TBZ
Protocol: as §1
(4)-a Anti-tetrabenazine ptosis test
Tetrabenazine (TBZ, 50 mg/kg s.c.) was administered to 5 mice for each group 1 hour after oral treatment with test compounds. […] (4=complete, 3=3/4, 2=1/2, 1=[…] closure of the eyelid, 0=normal).

[4] = tested on: spontaneous locomotion in mice; assay: Spontaneous locomotor decreasing activity; assay type: in vivo; settings: for ED50: Mus musculus, 50% decrease vs control, 95% confidence limits on a following line, read-out: ED50 (decreasing effect on spontaneous locomotion); for ED50 / % of decrease of spontaneous locomotion: mice, oral
Source text: (7) Spontaneous locomotor decreasing activity
For each group 5 mice were used.

[5] = compared with imipramine, Table 2

SMILES | ED50 (Acetic acid writhing) | LD50 at 72 h (Acute toxicity) | ED30 (Carrageenin edema) | ED50 [3] | ED50 (oxotremorine hypothermia) | ED50 (tetrabenazine ptosis) | further results
Cc1c(N(C)C)c(=O)n(-c2ccccc2)n1C [Aminopyrine, reference compound] | 58 mg/kg | 800 mg/kg | 24 mg/kg | – | – | – | –
CNCC1CCSc2c1n(C)c1ccccc21 (centres unmarked) [Compound 1, 4-Methylaminomethyl-5-methyl-2,3,4,5-tetrahydrothiopyrano[3,2-b]indole] | 6.4 mg/kg | 400 mg/kg | 9.4 mg/kg | 4.3 mg/kg | > 50 mg/kg | 24.4 mg/kg | hallucinogenic activity [1]: no hallucinogenic activity; ED50 ([2]; mice): 5.6 mg/kg; duration of spontaneous locomotion increasing activity ([2]; continuous/successive administration): more than 24 hours; effect on spontaneous locomotion (in words) ([2]; mice, Table 3): moderately increases spontaneous locomotion; strength of locomotion increasing activity compared with methamphetamine (in words) ([2]; mice, Table 3): does not have so strong increasing activity as methamphethamine; % of increase of spontaneous locomotion ([2]; mice, 5 mg/kg): 54.3%; % of increase of spontaneous locomotion ([2]; mice, 10 mg/kg): 91.4%; % of increase of spontaneous locomotion ([2]; mice, 20 mg/kg): 123.0%; anti-depressant activity (in words) [3, 5]: strong anti-depressant activity; anti-cholinergic activity (in words) (oxotremorine hypothermia; Table 2): no anti-cholinergic acitivity; anti-depressant activity (in words) (tetrabenazine ptosis; [5]): strong anti-depressant activity
CCn1c2c(c3ccccc31)SCCC2CNC (centres unmarked) [Compound 2, 4-methylaminomethyl-5-ethyl-2,3,4,5-tetrahydrothiopyrano[3,2-b]indole] | 13.3 mg/kg | 800 mg/kg | 9.4 mg/kg | – | – | – | –
CN(C)CC1CCSc2c1n(C)c1ccccc21 (centres unmarked) [Compound 3, 4-Dimethylaminomethyl-5-methyl-2,3,4,5-tetrahydrothiopyrano[3,2-b]indole] | 17.8 mg/kg | 400 mg/kg | 28.3 mg/kg | – | – | – | –
CNCC1CC[S+]([O-])c2c1n(C)c1ccccc21 (centres unmarked) [Compound 4, 4-Methylaminomethyl-5-methyl-2,3,4,5-tetrahydrothiopyrano[3,2-b]indole 1-oxide] | 49 mg/kg | > 1000 mg/kg | – | – | – | – | –
C=CCn1c2c(c3ccccc31)SCCC2CNC (centres unmarked) [Compound 5] | 11.3 mg/kg | 700 mg/kg | 17.5 mg/kg | – | – | – | –
CCN(CC)CCN(C)CC1CCSc2c1n(C)c1ccccc21 (centres unmarked) [Compound 6] | 25.3 mg/kg | 700 mg/kg | 13.4 mg/kg | – | – | – | –
CN(C)CCCN1c2ccccc2CCc2ccccc21 [Imipramine] | – | – | – | 102 mg/kg | 4.5 mg/kg | 6 mg/kg | ED50 [4]: 56 mg/kg; % of decrease of spontaneous locomotion ([4]; 25 mg/kg): 19.1%; % of decrease of spontaneous locomotion ([4]; 50 mg/kg): 56.0%; % of decrease of spontaneous locomotion ([4]; 100 mg/kg): 62.9%
CN[C@@H](C)Cc1ccccc1 [Methamphetamine, reference compound] | – | – | – | – | – | – | ED50 ([2]; mice): 0.6 mg/kg; % of increase of spontaneous locomotion ([2]; mice, 0.5 mg/kg): 45.4%; % of increase of spontaneous locomotion ([2]; mice, 1 mg/kg): 62.5%; % of increase of spontaneous locomotion ([2]; mice, 2 mg/kg): 137.8%
CNCC1CCSc2[nH]c3ccccc3c21 (centres unmarked) [Ref., 4methylaminomethyl-2,3,4,9-tetrahydro-thiopyrano [3,2b]indole HCl salt, reference compound] | 4.2 mg/kg | 330 mg/kg | – | 8.4 mg/kg | > 50 mg/kg | > 50 mg/kg | hallucinogenic activity [1]: does; ED50 [4]: 43 mg/kg; effect on spontaneous locomotion (in words) ([4]; Table 4): decreases the activity; % of decrease of spontaneous locomotion ([4]; 25 mg/kg): 7.4%; % of decrease of spontaneous locomotion ([4]; 50 mg/kg): 75.3%; % of decrease of spontaneous locomotion ([4]; 100 mg/kg): 97.2%
